Test results: US9169509B2, “Topoisomerase 2b as a predictor of susceptibility to anthracycline-induced cardiotoxicity” (Board of Regents, The University of Texas System, priority 2013, dated 2015)

Experiments:
heart sections [1] = assay: Transmission electron microscopy of heart sections; format: in vivo, mouse; conditions: for Ultra-structural changes of mitochondria (electron microscopy): doxorubicin 25 mg/kg for 72 h
Procedure: To examine doxorubicin-induced ultra-structural damages, wildtype and mice with Top2 deletion in the cardiomyocytes were treated with doxorubicin (25 mg/kg for 72 h or 5 mg/kg once a week for 5 weeks) or drug vehicle. Heart was quickly removed. After rinse with PBS and blot dried, 10-20 pieces of tissue samples (1×2×2 mm) were taken from the myocardium of the left ventricle. Tissue samples were immediately fixed in 3% phosphate glutaraldehyde. Before sectioning, tissue samples were washed in […] sodium phosphate buffer (pH 7.3), post fixed in 1% osmium tetroxide for 1 h and dehydrated through a series of graded alcohol. Then tissue samples were infiltrated with acetone and phlybed 812 plastic resin and embedded in plastic block molds with 100% polybed 812. One micron sections (thick sections) were cut on ultra microtome and placed on glass slides and stained with toluidine blue. Ultra thin sections (80 nm) were cut from sample blocks using a RMC MTXL Ultra Microtome and mounted on 100 mesh copper grids. Grids were stained with 2% uranyl acetate and Reynold's lead stain. 9 sections were analyzed from each animal heart. Grids were examined with a JEOL 1230 electron microscope and images were capture with an AMTV 600 imaging system.

heart sections [2] = assay: Masson's Trichrome staining of heart sections (fibrosis); format: in vivo, mouse
Procedure: FIGS. 6a-e: a. Schematic of chronic doxorubicin treatment protocol. All mice received a baseline MRI scan first. Tamoxifen was then administered by gavage at a dose of 25 mg/kg, once a day for 5 consecutive days. […] After the last MRI scan, mice were sacrificed and the hearts were removed and examined for histological changes and Top2b expression. b. RT-qPCR of genes involved in mitochondrial biogenesis. Mice were treated with doxorubicin (5 mg/kg) once a week for 5 weeks. Cardiomyocytes were isolated from the heart 72 hr after the last dose. Total RNA was extracted for RTqPCR analysis of genes important for the function and structure of the mitochondria. For each mRNA shown relative expression is graphed for Top2b^+/+ Control, Top2b^+/+ Dox, Top2b^Δ/Δ Control, and Top2b^Δ/Δ Dox (from left to right). One way ANOVA was used to determine statistical significance (p<0.05). Error bars indicated STDEV. The asterisks indicated a significant difference (p<0.05). c. ROS production and quantitation. Representative images of heart sections stained with Dihydroethidium (DHE), which, after oxidation, intercalated into DNA and stained the nuclei red. Mice were treated with doxorubicin (5 mg/kg) once a week for 5 weeks. […] The numbers of DHE-positive and total nuclei were counted as described and the percentage of DHE-positive nuclei was determined. […]

**Q.** What does the source list for `COc1cccc2c1C(=O)c1c(O)c3c(c(O)c1C2=O)C[C@@](O)(C(=O)CO)C[C@@H]3O[C@H]1C[C@H](N)[C@H](O)[C@H](C)O1` [doxorubicin]?
**A.** Ultrastructural changes in mitochondria (EM) (heart sections [1]; Top2b+/+ hearts, chronic doxorubicin 5 mg/kg once a week for 5 weeks): ultrastructural changes in mitochondria; Ultra-structural changes of mitochondria (electron microscopy) (heart sections [1]; Top2b+/+ mouse heart): marked mitochondria damage and vacuolization; Ultra-structural changes of mitochondria (electron microscopy) (heart sections [1]; Top2bΔ/Δ heart): minimal ultra-structural changes; Fibrosis in the hearts (Masson's Trichrome) (heart sections [2]; Top2b+/+ mice, doxorubicin 5 mg/kg once a week for 5 weeks, hearts 72 h after last dose): patchy fibrosis; Fibrosis and other pathological changes after chronic treatment, relative to Top2b+/+ hearts (heart sections [2]; Top2bΔ/Δ hearts, chronic doxorubicin 5 mg/kg once a week for 5 weeks): much less so
